According to PMC9986241 (Signal Transduction and Targeted Therapy, 2023):
Blank lines part the entries; values can stand above or below the compound they belong to.

Key:
A-Raf(h) = molecular target: T1, A-Raf(h) (Homo sapiens, UniProt P10398); test: KinaseProfiler enzyme profiling; type: biochemical; conditions: 100 nM
T1 construct: purchased Eurofins KinaseProfiler
Experimental: (§1) Enzyme profiling services were provided by KinaseProfiler™ (Eurofin, Brussels, Belgium). The concentration of erianin was 100 nM, and total 70 kinases were tested in this in vitro screening and profiling services (2 repetitions). For more details, refer to the manufacturer’s instructions (www.eurofinsdiscoveryservices.com).

BTK(h) = molecular target: T2, BTK(h) (Homo sapiens, UniProt Q06187); test: KinaseProfiler enzyme profiling; type: biochemical; conditions: 100 nM
T2 construct: purchased Eurofins KinaseProfiler
Experimental: as §1

CDK5/p25(h) = molecular target: T3, CDK5/p25(h) (Homo sapiens, UniProt Q00535); test: KinaseProfiler enzyme profiling; type: biochemical; conditions: 100 nM
T3 construct: purchased Eurofins KinaseProfiler
Experimental: as §1

CaMKIIα(h) = molecular target: T4, CaMKIIα(h) (Homo sapiens, UniProt Q9UQM7); test: KinaseProfiler enzyme profiling; type: biochemical; conditions: 100 nM
T4 construct: purchased Eurofins KinaseProfiler
T4 sequence (Q9UQM7 whole entry): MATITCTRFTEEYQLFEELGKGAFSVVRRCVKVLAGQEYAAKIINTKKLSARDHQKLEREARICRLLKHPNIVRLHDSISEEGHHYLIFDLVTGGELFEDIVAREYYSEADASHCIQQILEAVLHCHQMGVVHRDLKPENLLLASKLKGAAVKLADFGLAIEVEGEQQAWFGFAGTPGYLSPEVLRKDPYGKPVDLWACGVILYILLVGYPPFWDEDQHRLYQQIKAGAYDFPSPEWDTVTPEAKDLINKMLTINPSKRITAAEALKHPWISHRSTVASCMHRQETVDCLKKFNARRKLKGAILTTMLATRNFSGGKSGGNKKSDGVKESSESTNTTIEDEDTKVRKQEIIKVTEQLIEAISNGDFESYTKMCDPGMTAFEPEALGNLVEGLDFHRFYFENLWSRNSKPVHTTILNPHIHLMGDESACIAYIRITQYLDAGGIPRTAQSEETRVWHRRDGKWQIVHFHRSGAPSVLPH
Experimental: as §1

EphA5(h) = molecular target: T5, EphA5(h) (Homo sapiens, UniProt P54756); test: KinaseProfiler enzyme profiling; type: biochemical; conditions: 100 nM
T5 construct: purchased Eurofins KinaseProfiler
T5 sequence (P54756 25-1037): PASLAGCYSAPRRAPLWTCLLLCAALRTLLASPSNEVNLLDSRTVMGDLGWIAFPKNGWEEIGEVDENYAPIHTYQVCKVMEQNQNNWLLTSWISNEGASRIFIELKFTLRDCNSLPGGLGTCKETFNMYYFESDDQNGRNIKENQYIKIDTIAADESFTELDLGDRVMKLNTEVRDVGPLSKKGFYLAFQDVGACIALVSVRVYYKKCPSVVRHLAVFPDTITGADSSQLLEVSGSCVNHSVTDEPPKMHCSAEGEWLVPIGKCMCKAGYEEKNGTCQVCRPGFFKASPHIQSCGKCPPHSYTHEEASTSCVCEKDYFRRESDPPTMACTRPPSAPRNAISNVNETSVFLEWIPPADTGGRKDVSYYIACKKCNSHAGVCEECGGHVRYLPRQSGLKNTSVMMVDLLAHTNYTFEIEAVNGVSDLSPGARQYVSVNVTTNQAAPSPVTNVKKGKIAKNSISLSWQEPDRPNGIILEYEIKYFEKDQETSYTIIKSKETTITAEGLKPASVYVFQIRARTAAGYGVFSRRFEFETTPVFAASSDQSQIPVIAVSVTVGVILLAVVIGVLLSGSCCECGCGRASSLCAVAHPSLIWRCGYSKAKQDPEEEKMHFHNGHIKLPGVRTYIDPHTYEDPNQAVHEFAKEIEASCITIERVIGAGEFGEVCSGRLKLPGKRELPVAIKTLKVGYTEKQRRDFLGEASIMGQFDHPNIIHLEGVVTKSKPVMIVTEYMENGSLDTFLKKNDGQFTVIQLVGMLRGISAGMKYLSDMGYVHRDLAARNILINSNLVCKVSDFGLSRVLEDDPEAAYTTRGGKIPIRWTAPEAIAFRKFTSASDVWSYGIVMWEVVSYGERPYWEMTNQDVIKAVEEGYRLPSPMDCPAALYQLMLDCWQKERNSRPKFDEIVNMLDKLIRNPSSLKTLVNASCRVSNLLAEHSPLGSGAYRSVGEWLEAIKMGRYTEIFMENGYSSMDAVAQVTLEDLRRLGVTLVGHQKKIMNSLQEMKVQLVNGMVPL
Experimental: as §1

Snk(h) = molecular target: T6, Snk(h) (Homo sapiens, UniProt Q9NYY3); test: KinaseProfiler enzyme profiling; type: biochemical; conditions: 100 nM
T6 construct: purchased Eurofins KinaseProfiler
Experimental: as §1

active CRAF (306-end) = molecular target: T7, active CRAF (306-end) (Homo sapiens, UniProt P04049, Y340E/Y341E); test: In vitro kinase assay (western blotting); type: biochemical; conditions: 12.5 to 50 nM, dose-dependent
T7 construct: purchased Signal Chem R01-13G
Experimental: (§2) After incubated with 100–400 μM ATP in kinase assay buffer for 30 min, the phosphorylation of the substrate/total substrate protein was detected by western blotting. For ADP-glo kinase assay, unconsumed ATP was depleted with the addition of ADP-Glo™. Followed by kinase detection reagent to convert ADP to ATP, consumption of ATP was detected to evaluate the kinase activity. For more details, refer to the manufacturer’s instructions of ADP-Glo™ Kinase Assay.

[1] = molecular target: active GST-MEK1 full length (Homo sapiens, UniProt Q02750); test: In vitro kinase assay (western blotting); type: biochemical; conditions: 12.5 to 50 nM, dose-dependent
Chain of active GST-MEK1 full length (Q02750 whole entry): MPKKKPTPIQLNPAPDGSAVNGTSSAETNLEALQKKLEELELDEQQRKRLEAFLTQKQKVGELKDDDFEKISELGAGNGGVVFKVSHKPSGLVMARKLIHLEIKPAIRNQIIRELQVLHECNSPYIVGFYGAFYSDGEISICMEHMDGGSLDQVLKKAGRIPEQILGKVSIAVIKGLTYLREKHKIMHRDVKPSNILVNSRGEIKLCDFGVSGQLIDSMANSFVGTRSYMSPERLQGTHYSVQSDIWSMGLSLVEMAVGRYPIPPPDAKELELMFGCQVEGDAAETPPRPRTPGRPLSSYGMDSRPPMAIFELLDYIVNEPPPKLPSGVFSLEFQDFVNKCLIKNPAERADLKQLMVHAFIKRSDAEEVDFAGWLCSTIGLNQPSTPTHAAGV
Experimental: as §2

[2] = molecular target: active GST-MEK2 full length (Homo sapiens, UniProt P36507); test: In vitro kinase assay (western blotting); type: biochemical; conditions: 12.5 to 50 nM, dose-dependent
Experimental: as §2

BRAF = molecular target: T8, BRAF (Homo sapiens, UniProt P15056, V600E); test: Erianin-conjugated Sepharose 4B bead pull-down assay; type: binding; conditions: in vitro and ex vivo (A375 cell lysate)
T8 construct: endogenous in cells; host or cells: A375
T8 sequence (P15056 whole entry V600E): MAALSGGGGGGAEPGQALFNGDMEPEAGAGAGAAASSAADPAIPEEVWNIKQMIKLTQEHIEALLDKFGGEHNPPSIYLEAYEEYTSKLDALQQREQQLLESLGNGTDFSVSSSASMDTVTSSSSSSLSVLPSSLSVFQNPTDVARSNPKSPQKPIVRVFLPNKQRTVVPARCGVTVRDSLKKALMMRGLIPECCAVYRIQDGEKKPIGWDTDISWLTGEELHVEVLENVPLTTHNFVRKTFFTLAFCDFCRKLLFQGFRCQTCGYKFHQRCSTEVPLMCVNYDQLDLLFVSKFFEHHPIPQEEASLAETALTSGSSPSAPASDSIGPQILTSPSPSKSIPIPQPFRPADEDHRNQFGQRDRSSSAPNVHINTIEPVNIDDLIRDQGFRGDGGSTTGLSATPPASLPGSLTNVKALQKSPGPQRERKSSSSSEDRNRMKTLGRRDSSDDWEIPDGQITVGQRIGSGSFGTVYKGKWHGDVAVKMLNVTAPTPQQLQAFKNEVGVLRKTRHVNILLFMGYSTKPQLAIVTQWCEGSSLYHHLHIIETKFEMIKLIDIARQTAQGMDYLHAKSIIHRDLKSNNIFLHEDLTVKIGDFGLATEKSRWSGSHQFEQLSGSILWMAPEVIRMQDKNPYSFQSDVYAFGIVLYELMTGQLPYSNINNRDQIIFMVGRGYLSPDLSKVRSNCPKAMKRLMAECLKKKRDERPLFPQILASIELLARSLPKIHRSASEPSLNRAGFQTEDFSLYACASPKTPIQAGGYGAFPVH
Experimental: (§3) Cell lysate (500 μg) or recombinant proteins (200 ng) were incubated with erianin-CNBr activated sepharose 4B overnight at 4 °C, and the protein-beads complex was washed four times by the use of rotational incubator to remove non-specific binding. Western blotting was developed to check the pull-down bands.

CRAF = molecular target: T9, CRAF (Homo sapiens, UniProt P04049); test: as above; type: binding; conditions: in vitro and ex vivo (A375 cell lysate)
T9 construct: endogenous in cells; host or cells: A375
Experimental: 293 T cells were transfected with plasmids of pcDNA3.1-3×Flag-C-MAP2K1/MAP2K1 (K97A, M146A), MAP2K2/MAP2K1 (K101A, M150A), or CRAF/CRAF (K375A). […]
as §3

[3] = tested on: SK-MEL-2, A375, SK-MEL-28, and HCT 116 cells; test: MTT growth assay at 24, 48, or 72 h; type: cell-based, human; conditions: both BRAF and RAS mutant cell lines
Experimental: The synergism and antagonism (CI value) were determined and analyzed using CompuSyn 1.0.
For cytotoxicity test, normal NHDF (5000 cells/well) and NHEM cell line (3000 cells/well) were planted into 96-well plates. For cell proliferation assay, A375 (1500 cells/well), SK-MEL-28 (3000 cells/well), SK-MEL-2 (4000 cells/well), and HCT116 (1500 cells/well) were planted into 96-well plates, determined concentration of drug was added after culture for 24 h. The viability of the cells was detected within 72 h using MTT solution (5 mg/mL). The absorbance at 570/490 nm was quantified by the use of the microplate reader.

[4] = tested on: MAPK signaling pathway (phospho-CRAF, phospho-MEK1/2, phospho-ERK1/2); test: Western blotting of MAPK signaling pathway in cells; conditions: both BRAF V600E and RAS mutant cell lines, 24 h
Description: Data were shown as means ± S.D. of three independent experiments. The asterisks (*p < 0.05, **p < 0.01, ***p < 0.001) indicate a significant difference in the expression of phosphorylation of ERK1 or ERK2 vs total ERK1 or ERK2 in control and erianin-treated group. g The luminescent ADP detection assay was developed to detect the luminescence signal of ATP-to-ADP using the same concentration kinases and substrates described in above kinase assay.
Protein was quantified using a BCA assay kit and then western blotting was conducted.

DMPK(h) = molecular target: T10, DMPK(h) (Homo sapiens, UniProt Q09013); test: KinaseProfiler enzyme profiling; type: biochemical
T10 construct: purchased Eurofins KinaseProfiler
T10 sequence (Q09013 whole entry): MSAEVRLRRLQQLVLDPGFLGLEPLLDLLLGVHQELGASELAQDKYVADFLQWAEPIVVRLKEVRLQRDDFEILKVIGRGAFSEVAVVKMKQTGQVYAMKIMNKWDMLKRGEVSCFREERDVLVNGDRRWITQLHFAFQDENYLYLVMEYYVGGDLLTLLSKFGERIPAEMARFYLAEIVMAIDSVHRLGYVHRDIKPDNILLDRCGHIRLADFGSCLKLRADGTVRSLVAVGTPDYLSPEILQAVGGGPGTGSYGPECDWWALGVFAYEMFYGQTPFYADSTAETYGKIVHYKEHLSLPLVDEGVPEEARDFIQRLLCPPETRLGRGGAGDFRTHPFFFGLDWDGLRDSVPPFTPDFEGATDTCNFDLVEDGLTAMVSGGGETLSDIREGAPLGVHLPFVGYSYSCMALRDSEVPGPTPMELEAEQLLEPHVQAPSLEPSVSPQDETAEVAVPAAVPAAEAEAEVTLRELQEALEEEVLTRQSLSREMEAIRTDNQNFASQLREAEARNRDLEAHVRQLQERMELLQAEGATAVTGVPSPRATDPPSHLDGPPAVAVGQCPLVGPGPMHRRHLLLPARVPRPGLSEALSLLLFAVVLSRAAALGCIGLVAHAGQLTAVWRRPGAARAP
Experimental: as §1

ErbB2(h) = molecular target: T11, ErbB2(h) (Homo sapiens, UniProt P04626); test: KinaseProfiler enzyme profiling; type: biochemical
T11 construct: purchased Eurofins KinaseProfiler
Experimental: as §1

ErbB4(h) = molecular target: T12, ErbB4(h) (Homo sapiens, UniProt Q15303); test: KinaseProfiler enzyme profiling; type: biochemical
T12 construct: purchased Eurofins KinaseProfiler
Experimental: as §1

MAPKAP-K2(h) = molecular target: T13, MAPKAP-K2(h) (Homo sapiens, UniProt P49137); test: KinaseProfiler enzyme profiling; type: biochemical
T13 construct: purchased Eurofins KinaseProfiler
T13 sequence (P49137 whole entry): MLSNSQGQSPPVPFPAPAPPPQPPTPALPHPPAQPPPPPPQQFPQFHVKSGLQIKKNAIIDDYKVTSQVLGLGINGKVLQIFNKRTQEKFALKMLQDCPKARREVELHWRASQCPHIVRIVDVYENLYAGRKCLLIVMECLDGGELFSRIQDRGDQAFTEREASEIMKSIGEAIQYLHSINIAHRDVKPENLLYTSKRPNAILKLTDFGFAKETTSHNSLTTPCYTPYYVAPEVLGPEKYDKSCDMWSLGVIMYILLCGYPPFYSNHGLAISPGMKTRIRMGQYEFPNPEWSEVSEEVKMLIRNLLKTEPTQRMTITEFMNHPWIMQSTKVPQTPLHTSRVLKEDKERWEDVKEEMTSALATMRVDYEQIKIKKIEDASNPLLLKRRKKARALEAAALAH
Experimental: as §1

MST2(h) = molecular target: T14, MST2(h) (Homo sapiens, UniProt Q13188); test: KinaseProfiler enzyme profiling; type: biochemical
T14 construct: purchased Eurofins KinaseProfiler
Experimental: as §1

NEK6(h) = molecular target: T15, NEK6(h) (Homo sapiens, UniProt Q9HC98); test: KinaseProfiler enzyme profiling; type: biochemical
T15 construct: purchased Eurofins KinaseProfiler
Experimental: as §1

TAO3(h) = molecular target: T16, TAO3(h) (Homo sapiens, UniProt Q9H2K8); test: KinaseProfiler enzyme profiling; type: biochemical
T16 construct: purchased Eurofins KinaseProfiler
Experimental: as §1

Axl(h) = molecular target: T17, Axl(h) (Homo sapiens, UniProt P30530); test: KinaseProfiler enzyme profiling; type: biochemical
T17 construct: purchased Eurofins KinaseProfiler
T17 sequence (P30530 26-894): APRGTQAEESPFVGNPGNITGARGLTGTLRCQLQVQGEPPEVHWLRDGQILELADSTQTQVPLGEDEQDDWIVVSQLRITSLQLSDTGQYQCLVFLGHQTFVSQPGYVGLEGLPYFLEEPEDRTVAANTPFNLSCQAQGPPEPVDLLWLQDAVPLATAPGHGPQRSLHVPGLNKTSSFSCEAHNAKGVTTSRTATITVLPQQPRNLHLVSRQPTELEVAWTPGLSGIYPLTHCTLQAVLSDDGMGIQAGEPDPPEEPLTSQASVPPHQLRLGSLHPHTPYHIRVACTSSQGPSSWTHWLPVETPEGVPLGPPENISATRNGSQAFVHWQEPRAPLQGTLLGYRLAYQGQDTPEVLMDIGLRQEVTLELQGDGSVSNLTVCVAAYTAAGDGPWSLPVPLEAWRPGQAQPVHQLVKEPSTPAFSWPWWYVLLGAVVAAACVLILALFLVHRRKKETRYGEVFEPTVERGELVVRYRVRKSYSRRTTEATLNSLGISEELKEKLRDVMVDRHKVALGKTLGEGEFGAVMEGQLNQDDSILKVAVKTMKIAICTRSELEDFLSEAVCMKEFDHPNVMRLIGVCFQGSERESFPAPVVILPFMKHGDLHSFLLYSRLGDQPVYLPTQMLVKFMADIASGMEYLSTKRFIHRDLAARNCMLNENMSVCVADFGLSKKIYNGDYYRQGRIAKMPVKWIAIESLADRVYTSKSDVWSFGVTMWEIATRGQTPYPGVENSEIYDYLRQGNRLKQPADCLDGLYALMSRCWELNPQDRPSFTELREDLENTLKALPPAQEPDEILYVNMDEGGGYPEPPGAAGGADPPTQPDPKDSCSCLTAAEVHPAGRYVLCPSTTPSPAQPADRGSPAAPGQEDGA
Experimental: as §1

CDK5/p35(h) = molecular target: T18, CDK5/p35(h) (Homo sapiens, UniProt Q00535); test: KinaseProfiler enzyme profiling; type: biochemical
T18 construct: purchased Eurofins KinaseProfiler
Experimental: as §1

CDK7/cyclinH(h) = molecular target: T19, CDK7/cyclinH(h) (Homo sapiens, UniProt P50613); test: KinaseProfiler enzyme profiling; type: biochemical
T19 construct: purchased Eurofins KinaseProfiler
Experimental: as §1

CK1γ1(h) = molecular target: T20, CK1γ1(h) (Homo sapiens, UniProt Q9HCP0); test: KinaseProfiler enzyme profiling; type: biochemical
T20 construct: purchased Eurofins KinaseProfiler
T20 sequence (Q9HCP0 whole entry): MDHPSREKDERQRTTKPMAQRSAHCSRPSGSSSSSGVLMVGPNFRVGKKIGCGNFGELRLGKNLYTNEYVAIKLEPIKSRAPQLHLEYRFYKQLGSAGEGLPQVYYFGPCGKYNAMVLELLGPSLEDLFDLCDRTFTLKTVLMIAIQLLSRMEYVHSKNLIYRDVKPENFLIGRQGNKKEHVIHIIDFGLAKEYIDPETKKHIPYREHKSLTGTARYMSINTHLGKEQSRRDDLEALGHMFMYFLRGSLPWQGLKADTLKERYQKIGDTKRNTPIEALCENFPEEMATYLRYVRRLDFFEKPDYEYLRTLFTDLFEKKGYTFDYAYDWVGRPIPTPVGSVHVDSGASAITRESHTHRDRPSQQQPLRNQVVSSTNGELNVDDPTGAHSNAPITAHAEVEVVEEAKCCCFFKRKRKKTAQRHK
Experimental: as §1

LKB1(h) = molecular target: T21, LKB1(h) (Homo sapiens, UniProt Q15831); test: KinaseProfiler enzyme profiling; type: biochemical
T21 construct: purchased Eurofins KinaseProfiler
Experimental: as §1

MELK(h) = molecular target: T22, MELK(h) (Homo sapiens, UniProt Q14680); test: KinaseProfiler enzyme profiling; type: biochemical
T22 construct: purchased Eurofins KinaseProfiler
Experimental: as §1

MKK7β(h) = molecular target: T23, MKK7β(h) (Homo sapiens, UniProt O14733); test: KinaseProfiler enzyme profiling; type: biochemical
T23 construct: purchased Eurofins KinaseProfiler
Experimental: as §1

CK1(y) = test: KinaseProfiler enzyme profiling; type: biochemical, yeast; conditions: 10 µM
Description: Enzyme profiling services were provided by KinaseProfiler™ (Eurofin, Brussels, Belgium). […] For more details, refer to the manufacturer’s instructions (www.eurofinsdiscoveryservices.com).

SMILES: COc1ccc(CCc2cc(OC)c(OC)c(OC)c2)cc1O [Erianin]
activity at 0.1 µM (A-Raf(h)): 109%
activity at 0.1 µM (BTK(h)): 104%
activity at 0.1 µM (CDK5/p25(h)): 102%
activity at 0.1 µM (CaMKIIα(h)): 90%
activity at 0.1 µM (EphA5(h)): 108%
activity at 0.1 µM (Snk(h)): 109%
CRAF kinase activity (phosphorylation of MEK1) (active CRAF (306-end)): inhibited
MEK1 kinase activity (phosphorylation of ERK1) [1]: inhibited
MEK2 kinase activity (phosphorylation of ERK2) [2]: inhibited
binding in pull-down (BRAF): directly bound
binding in pull-down (CRAF): directly bound
proliferation [3]: markedly suppress
constitutive activation of MAPK signaling pathway [4]: inhibited constitutive activation of MAPK signaling pathway

activity at 10 µM (DMPK(h)): 104%
activity at 10 µM (ErbB2(h)): 112%
activity at 10 µM (ErbB4(h)): 91%
activity at 10 µM (MAPKAP-K2(h)): 85%
activity at 10 µM (MST2(h)): 54%
activity at 10 µM (NEK6(h)): 99%
activity at 10 µM (TAO3(h)): 66%
SMILES: C=C1C(=O)[C@]23[C@H](O)[C@H]1CC[C@H]2[C@@]12CO[C@]3(O)[C@@H](O)[C@@H]1C(C)(C)CC[C@@H]2O [Oridonin]

activity at 10 µM (Axl(h)): 97%
activity at 10 µM (CDK5/p35(h)): 99%
activity at 10 µM (CDK7/cyclinH(h)): 92%
activity at 10 µM (CK1γ1(h)): 103%
activity at 10 µM (LKB1(h)): 96%
activity at 10 µM (MELK(h)): 100%
activity at 10 µM (MKK7β(h)): 95%
Activity % (CK1(y)): 95%
SMILES: COc1cc2oc(-c3ccc(O)c(O)c3)cc(=O)c2c(O)c1OC [Cirsiliol]
